Source: ChEMBL document CHEMBL1138586 (Bioorg Med Chem Lett, 2009)
Values belong to the compound of their own block, whether it stands above or below them.

What was measured:
[1] = Fraction unbound in human plasma at 10 uM after 30 mins; assay type: ADME, cell-free
[2] = target: T1, Voltage-gated inwardly rectifying potassium channel KCNH2 (Homo sapiens, UniProt Q12809); test: Inhibition of human ERG expressed in HEK293 cells by patch-clamp method; assay type: cell-based
[3] = target: Prothrombin (Homo sapiens, UniProt P00734); test: Inhibition of thrombin
[4] = Inhibition of trypsin
[5] = target: Tissue-type plasminogen activator (Homo sapiens, UniProt P00750); test: Inhibition of tissue plasminogen activator
Chain of Tissue-type plasminogen activator (P00750 whole entry): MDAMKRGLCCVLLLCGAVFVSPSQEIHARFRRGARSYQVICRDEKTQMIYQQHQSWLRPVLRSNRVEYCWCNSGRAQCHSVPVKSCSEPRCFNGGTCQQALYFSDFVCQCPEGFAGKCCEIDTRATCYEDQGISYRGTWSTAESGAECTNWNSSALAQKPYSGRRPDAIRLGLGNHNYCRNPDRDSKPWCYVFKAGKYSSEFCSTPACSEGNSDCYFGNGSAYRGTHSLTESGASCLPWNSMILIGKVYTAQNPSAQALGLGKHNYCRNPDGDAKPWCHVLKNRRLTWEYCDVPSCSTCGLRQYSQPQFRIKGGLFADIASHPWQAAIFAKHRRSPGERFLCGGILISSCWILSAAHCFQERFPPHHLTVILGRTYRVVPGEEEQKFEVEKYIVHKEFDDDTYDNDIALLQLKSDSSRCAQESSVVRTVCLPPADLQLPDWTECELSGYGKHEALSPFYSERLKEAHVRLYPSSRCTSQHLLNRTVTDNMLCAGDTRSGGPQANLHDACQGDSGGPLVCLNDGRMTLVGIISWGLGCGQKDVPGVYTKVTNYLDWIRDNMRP

[6] = target: Vitamin K-dependent protein C (Homo sapiens, UniProt P04070); test: Inhibition of activated anticoagulant protein C
Chain of Vitamin K-dependent protein C (P04070 43-197 limits assumed): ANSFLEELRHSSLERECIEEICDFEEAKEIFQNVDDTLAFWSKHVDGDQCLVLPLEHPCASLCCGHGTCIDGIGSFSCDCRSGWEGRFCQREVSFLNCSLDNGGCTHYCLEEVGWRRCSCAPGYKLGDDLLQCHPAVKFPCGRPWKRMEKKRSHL
Chain of Vitamin K-dependent protein C (P04070 212-461 limits assumed): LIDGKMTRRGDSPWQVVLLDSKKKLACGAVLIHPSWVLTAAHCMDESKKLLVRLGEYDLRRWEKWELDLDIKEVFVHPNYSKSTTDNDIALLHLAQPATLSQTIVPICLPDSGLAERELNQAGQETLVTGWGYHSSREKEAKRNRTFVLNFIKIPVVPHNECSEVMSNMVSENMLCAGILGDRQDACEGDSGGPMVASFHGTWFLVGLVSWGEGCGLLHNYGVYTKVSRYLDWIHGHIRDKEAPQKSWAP

[7] = target: Plasminogen (Homo sapiens, UniProt P00747); test: Inhibition of plasmin
Chain of Plasminogen (P00747 97-580 limits assumed): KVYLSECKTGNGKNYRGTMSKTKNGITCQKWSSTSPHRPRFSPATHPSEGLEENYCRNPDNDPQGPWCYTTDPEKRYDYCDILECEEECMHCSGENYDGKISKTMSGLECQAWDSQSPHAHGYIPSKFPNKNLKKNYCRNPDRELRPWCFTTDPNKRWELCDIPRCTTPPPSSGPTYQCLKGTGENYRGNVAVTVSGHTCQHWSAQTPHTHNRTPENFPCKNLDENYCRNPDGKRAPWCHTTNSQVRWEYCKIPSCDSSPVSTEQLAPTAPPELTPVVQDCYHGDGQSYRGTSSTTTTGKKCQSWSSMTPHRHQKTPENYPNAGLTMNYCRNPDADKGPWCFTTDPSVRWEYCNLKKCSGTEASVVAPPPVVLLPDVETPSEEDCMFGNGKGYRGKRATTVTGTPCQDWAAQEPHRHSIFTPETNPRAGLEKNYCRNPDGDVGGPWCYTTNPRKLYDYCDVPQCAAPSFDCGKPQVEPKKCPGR
Chain of Plasminogen (P00747 581-810 limits assumed): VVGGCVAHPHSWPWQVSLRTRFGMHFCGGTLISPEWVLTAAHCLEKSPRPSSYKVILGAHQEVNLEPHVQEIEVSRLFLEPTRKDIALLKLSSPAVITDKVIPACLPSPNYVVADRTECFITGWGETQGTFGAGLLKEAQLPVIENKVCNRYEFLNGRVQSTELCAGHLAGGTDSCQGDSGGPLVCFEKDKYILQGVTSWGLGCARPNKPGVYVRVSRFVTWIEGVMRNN

[8] = Inhibition of kallikrein
[9] = Oral bioavailability in rat at 6 mg/kg; assay type: ADME, organism-based; details: in vivo
[10] = Half life in rat at 0.2 mg/kg, iv and 6 mg/kg, po; assay type: ADME, organism-based; details: in vivo
[11] = Clearance in rat at 0.2 mg/kg, iv and 6 mg/kg, po; assay type: ADME, organism-based; details: in vivo
[12] = Volume of distribution in rat at 0.2 mg/kg, iv and 6 mg/kg, po; assay type: ADME, organism-based; details: in vivo
[13] = AUC in rat at 6 mg/kg, po; assay type: ADME, organism-based; design: dose 6 mg/kg, route oral; details: plasma
[14] = Oral bioavailability in Beagle dog at 1 mg/kg; assay type: ADME, organism-based, Canis lupus familiaris; details: in vivo
[15] = Half life in Beagle dog at 0.1 mg/kg, iv and 1 mg/kg, po; assay type: ADME, organism-based, Canis lupus familiaris; details: in vivo
[16] = Clearance in Beagle dog at 0.1 mg/kg, iv and 1 mg/kg, po; assay type: ADME, organism-based, Canis lupus familiaris; details: in vivo
[17] = Volume of distribution in Beagle dog at 0.1 mg/kg, iv and 1 mg/kg, po; assay type: ADME, organism-based, Canis lupus familiaris; details: in vivo
[18] = AUC in Beagle dog at 1 mg/kg, po; assay type: ADME, organism-based, Canis lupus familiaris; design: dose 1 mg/kg, route oral; details: plasma
[19] = Oral bioavailability in cynomolgus monkey at 1 mg/kg; assay type: ADME, organism-based, Macaca fascicularis; details: in vivo
[20] = Half life in cynomolgus monkey at 0.1 mg/kg, iv and 1 mg/kg, po; assay type: ADME, organism-based, Macaca fascicularis; details: in vivo
[21] = Clearance in cynomolgus monkey at 0.1 mg/kg, iv and 1 mg/kg, po; assay type: ADME, organism-based, Macaca fascicularis; details: in vivo
[22] = Volume of distribution in cynomolgus monkey at 0.1 mg/kg, iv and 1 mg/kg, po; assay type: ADME, organism-based, Macaca fascicularis; details: in vivo
[23] = AUC in cynomolgus monkey at 1 mg/kg, po; assay type: ADME, organism-based, Macaca fascicularis; design: dose 1 mg/kg, route oral; details: plasma
[24] = target: T1, Voltage-gated inwardly rectifying potassium channel KCNH2
[25] = Oral bioavailability in Sprague-Dawley rat at 6 mg/kg; assay type: ADME, organism-based; details: in vivo
[26] = target: Coagulation factor X (Homo sapiens, UniProt P00742); test: Inhibition of Factor 10a
Chain of Coagulation factor X (P00742 41-179 limits assumed): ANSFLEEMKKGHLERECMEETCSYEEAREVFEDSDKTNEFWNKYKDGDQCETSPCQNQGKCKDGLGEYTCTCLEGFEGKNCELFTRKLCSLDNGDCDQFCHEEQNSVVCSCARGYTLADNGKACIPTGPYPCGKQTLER
Chain of Coagulation factor X (P00742 235-488 limits assumed): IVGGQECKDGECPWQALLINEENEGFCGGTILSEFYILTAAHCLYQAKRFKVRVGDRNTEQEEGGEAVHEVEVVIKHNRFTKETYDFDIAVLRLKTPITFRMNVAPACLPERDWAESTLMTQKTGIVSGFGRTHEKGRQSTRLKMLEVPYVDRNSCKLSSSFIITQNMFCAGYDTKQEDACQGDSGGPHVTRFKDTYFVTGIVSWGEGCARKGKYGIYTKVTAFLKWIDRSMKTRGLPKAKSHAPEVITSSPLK

[27] = Metabolic stability in human liver S9 fraction at 1 uM by HPLC; assay type: ADME, subcellular
[28] = Metabolic stability in rat liver S9 fraction at 1 uM by HPLC; assay type: ADME, subcellular
[29] = Clearance in rat; assay type: ADME, organism-based; details: in vivo
[30] = Half life in rat; assay type: ADME, organism-based; details: in vivo
[31] = Oral bioavailability in rat; assay type: ADME, organism-based; details: in vivo
[32] = Oral bioavailability in rat at 5 mg/kg; assay type: ADME, organism-based; details: in vivo
[33] = Half life in rat at 1 mg/kg, iv and 5 mg/kg, po; assay type: ADME, organism-based; details: in vivo
[34] = Clearance in rat at 1 mg/kg, iv and 5 mg/kg, po; assay type: ADME, organism-based; details: in vivo
[35] = Volume of distribution in rat at 1 mg/kg, iv and 5 mg/kg, po; assay type: ADME, organism-based; details: in vivo
[36] = AUC in rat at 5 mg/kg, po; assay type: ADME, organism-based; design: dose 5 mg/kg, route oral; details: plasma
[37] = Oral bioavailability in Beagle dog at 2.5 mg/kg; assay type: ADME, organism-based, Canis lupus familiaris; details: in vivo
[38] = Half life in Beagle dog at 0.5 mg/kg, iv and 2.5 mg/kg, po; assay type: ADME, organism-based, Canis lupus familiaris; details: in vivo
[39] = Clearance in Beagle dog at 0.5 mg/kg, iv and 2.5 mg/kg, po; assay type: ADME, organism-based, Canis lupus familiaris; details: in vivo
[40] = Volume of distribution in Beagle dog at 0.5 mg/kg, iv and 2.5 mg/kg, po; assay type: ADME, organism-based, Canis lupus familiaris; details: in vivo
[41] = AUC in Beagle dog at 2.5 mg/kg, po; assay type: ADME, organism-based, Canis lupus familiaris; design: dose 2.5 mg/kg, route oral; details: plasma
[42] = Oral bioavailability in cynomolgus monkey at 7.5 mg/kg; assay type: ADME, organism-based, Macaca fascicularis; details: in vivo
[43] = Half life in cynomolgus monkey at 0.75 mg/kg, iv and 7.5 mg/kg, po; assay type: ADME, organism-based, Macaca fascicularis; details: in vivo
[44] = Clearance in cynomolgus monkey at 0.75 mg/kg, iv and 7.5 mg/kg, po; assay type: ADME, organism-based, Macaca fascicularis; details: in vivo
[45] = Volume of distribution in cynomolgus monkey at 0.75 mg/kg, iv and 7.5 mg/kg, po; assay type: ADME, organism-based, Macaca fascicularis; details: in vivo
[46] = AUC in cynomolgus monkey at 7.5 mg/kg, po; assay type: ADME, organism-based, Macaca fascicularis; design: dose 7.5 mg/kg, route oral; details: plasma

T1 sequence (Q12809 whole entry): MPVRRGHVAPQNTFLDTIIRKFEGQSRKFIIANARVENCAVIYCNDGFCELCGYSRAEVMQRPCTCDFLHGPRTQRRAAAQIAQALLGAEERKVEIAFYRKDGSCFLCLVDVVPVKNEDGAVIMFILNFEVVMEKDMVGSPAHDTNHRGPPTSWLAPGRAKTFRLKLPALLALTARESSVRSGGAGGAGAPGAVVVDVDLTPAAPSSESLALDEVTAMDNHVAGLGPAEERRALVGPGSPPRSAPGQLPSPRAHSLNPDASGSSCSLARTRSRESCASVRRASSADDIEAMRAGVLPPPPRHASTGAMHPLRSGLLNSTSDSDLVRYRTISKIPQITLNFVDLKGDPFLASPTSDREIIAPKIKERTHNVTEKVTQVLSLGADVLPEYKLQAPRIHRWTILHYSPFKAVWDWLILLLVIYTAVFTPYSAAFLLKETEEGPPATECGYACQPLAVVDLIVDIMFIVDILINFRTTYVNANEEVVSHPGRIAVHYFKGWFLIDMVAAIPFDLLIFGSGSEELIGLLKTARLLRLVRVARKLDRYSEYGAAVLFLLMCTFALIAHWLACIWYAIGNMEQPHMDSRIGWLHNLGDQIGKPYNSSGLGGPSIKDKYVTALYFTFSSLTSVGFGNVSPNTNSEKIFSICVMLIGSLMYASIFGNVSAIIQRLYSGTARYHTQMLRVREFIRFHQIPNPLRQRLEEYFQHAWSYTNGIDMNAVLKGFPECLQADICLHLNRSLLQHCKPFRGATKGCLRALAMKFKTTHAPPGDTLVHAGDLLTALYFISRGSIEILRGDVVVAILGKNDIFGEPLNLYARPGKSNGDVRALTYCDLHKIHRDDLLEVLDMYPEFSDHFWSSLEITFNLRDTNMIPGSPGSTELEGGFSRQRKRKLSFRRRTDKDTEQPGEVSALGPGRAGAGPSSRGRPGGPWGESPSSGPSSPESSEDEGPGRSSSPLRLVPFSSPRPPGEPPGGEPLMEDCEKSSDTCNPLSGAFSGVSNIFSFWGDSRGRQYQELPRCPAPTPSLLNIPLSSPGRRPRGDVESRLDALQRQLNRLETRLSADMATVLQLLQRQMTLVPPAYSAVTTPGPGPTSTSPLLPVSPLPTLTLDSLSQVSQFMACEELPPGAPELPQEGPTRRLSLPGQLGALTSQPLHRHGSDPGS

fraction unbound at 0.5 h, 10 µM [1]: 0.881 | IC50 [3]: > 10000 nM | IC50 [4]: > 10000 nM | IC50 [5]: > 10000 nM | IC50 [6]: > 10000 nM | IC50 [7]: > 10000 nM | IC50 [8]: 510 nM | bioavailability [9]: 26.1% | half-life [10]: 12.8 h | clearance [11]: 1.78 L/h/kg | Vd [12]: 26.1 L/kg | AUC [13]: 0.885 µg·h/mL | bioavailability [14]: 64.9% | half-life [15]: 15.3 h | clearance [16]: 2.04 L/h/kg | Vd [17]: 45.7 L/kg | AUC [18]: 0.32 µg·h/mL | bioavailability [19]: 73% | half-life [20]: 19.4 h | clearance [21]: 1.6 L/h/kg | Vd [22]: 36.5 L/kg | AUC [23]: 0.512 µg·h/mL
Compound: CN(C)C(=N)c1ccc(C(=O)Nc2ccc(Cl)cc2C(=O)Nc2ccc(Cl)cn2)cc1
IC50 [2]: 330 nM | Ki [24]: 110 nM

bioavailability [25]: 31%
Compound: CN(C)C(=N)c1ccc(C(=O)Nc2ccccc2C(=O)Nc2ccc(Cl)cn2)cc1

IC50 [26]: < 0.5 nM | half-life at 1 µM [27]: > 2 h | half-life at 1 µM [28]: > 2 h | clearance [29]: 4.63 L/h/kg | half-life [30]: 16.5 h | bioavailability [31]: 26.7%
Compound: CSc1ccc(NC(=O)c2ccc(C(=N)N(C)C)cc2)c(C(=O)Nc2ccc(Cl)cn2)c1

IC50 [26]: < 0.5 nM | Ki [26]: 0.06 nM | IC50 [3]: > 10000 nM | IC50 [4]: > 10000 nM | IC50 [5]: > 10000 nM | IC50 [6]: > 10000 nM | IC50 [7]: > 10000 nM | IC50 [8]: 540 nM | bioavailability [9]: 38% | half-life [10]: 5.2 h | clearance [11]: 0.918 L/h/kg | Vd [12]: 6.9 L/kg | AUC [13]: 2.43 µg·h/mL | bioavailability [14]: 68.8% | half-life [15]: 13.1 h | clearance [16]: 1.83 L/h/kg | Vd [17]: 35.1 L/kg | AUC [18]: 0.381 µg·h/mL | bioavailability [19]: 86.1% | half-life [20]: 22.8 h | clearance [21]: 0.672 L/h/kg | Vd [22]: 20.5 L/kg | AUC [23]: 1.3 µg·h/mL | clearance [29]: 0.918 L/h/kg | bioavailability [31]: 38%
Compound: CN(C)C(=N)c1ccc(C(=O)Nc2ccc(Cl)cc2C(=O)Nc2ccc(Cl)cn2)c(F)c1
Ki [24]: 420 nM

IC50 [26]: 0.8 nM | half-life at 1 µM [27]: > 2 h | half-life at 1 µM [28]: > 2 h | clearance [29]: > 6 L/h/kg | half-life [30]: 6.3 h
Compound: C#Cc1ccc(NC(=O)c2cc(Cl)ccc2NC(=O)c2ccc(C(=N)N(C)C)cc2)nc1

IC50 [26]: 0.7 nM | Ki [26]: 0.105 nM | fraction unbound at 0.5 h, 10 µM [1]: 0.634 | IC50 [8]: 7200 nM | bioavailability [32]: 48.6% | half-life [33]: 5.5 h | clearance [34]: 3.45 L/h/kg | Vd [35]: 26.5 L/kg | AUC [36]: 0.77 µg·h/mL | bioavailability [37]: 88.9% | half-life [38]: 7.9 h | clearance [39]: 1.48 L/h/kg | Vd [40]: 16.8 L/kg | AUC [41]: 1.5 µg·h/mL | bioavailability [42]: 77.6% | half-life [43]: 11.4 h | clearance [44]: 0.972 L/h/kg | Vd [45]: 16.3 L/kg | AUC [46]: 6.17 µg·h/mL
Compound: COc1ccc(NC(=O)c2ccc(C(=N)N(C)C)cc2F)c(C(=O)Nc2ccc(Cl)cn2)c1
IC50 [2]: 4200 nM | Ki [24]: 2100 nM

fraction unbound at 0.5 h, 10 µM [1]: 0.8 | IC50 [3]: > 10000 nM | IC50 [4]: > 10000 nM | IC50 [5]: > 10000 nM | IC50 [6]: > 10000 nM | IC50 [7]: > 10000 nM | IC50 [8]: 6300 nM | bioavailability [32]: 23.8% | half-life [33]: 8.8 h | clearance [34]: 2.62 L/h/kg | Vd [35]: 32.9 L/kg | AUC [36]: 0.456 µg·h/mL | bioavailability [37]: 51.6% | half-life [38]: 21.2 h | clearance [39]: 1.59 L/h/kg | Vd [40]: 48.8 L/kg | AUC [41]: 0.825 µg·h/mL | bioavailability [42]: 58.7% | half-life [43]: 9.6 h | clearance [44]: 1.12 L/h/kg | Vd [45]: 13.4 L/kg | AUC [46]: 4.18 µg·h/mL
Compound: COc1ccc(NC(=O)c2ccc(C(=N)N(C)C)cc2)c(C(=O)Nc2ccc(Cl)cn2)c1 [BETRIXABAN]
